Earlier results as cited in US10927113B2, “Process for preparing purine derivatives” (Cyclacel Limited, priority 2017, dated 2021).

How the values were obtained:
CDK = details: background statement referring to WO 2008/122767
[1] = tested on: a range of different cell lines; details: background statement

In the case of `CC[C@H](Nc1nc(NCc2cnc(C)cc2C)c2ncn(C(C)C)c2n1)[C@@H](C)O` [Compound [1]], the CDK inhibitory activity (CDK) is listed as “potent CDK inhibitory activity” and the “potency in cellular toxicity studies” value [1] is listed as “surprisingly high potency”.
